These results are taken from PubChem BioAssay AID330 (DTP/NCI, 2004).

Several values for one entry are separate records, joined by “and”; a condition that tells them apart may be missing. Equal values may be shown once. Inconclusive results and toxic doses are left out.

In this assay the test system is P388 leukemia ip, CD2F1 mice, survival T/C. In words: NCI In Vivo Anticancer Drug Screen. Data for tumor model P388 Leukemia (intraperitoneal) in CD2F1 (CDF1) mice. Conditions: endpoint: median survival time, higher = longer survival. A digest of the protocol: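 Mice carrying the transplanted tumor received test compound or vehicle. Survival was recorded in each group, and the value is the treated-group measurement divided by that of the vehicle-treated control group.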

The mark [1] stands for this setting: dose: 50.0 mg/kg/injection, schedule: Q01DX005 (ip), vehicle: Klucel (hydroxypropylcellulose) (HPC).
Setting [2] is: dose: 100.0 mg/kg/injection, schedule: Q01DX005 (ip), vehicle: Klucel (hydroxypropylcellulose) (HPC).
Setting [3] is: dose: 200.0 mg/kg/injection, schedule: Q01DX005 (ip), vehicle: Klucel (hydroxypropylcellulose) (HPC).
Setting [4] is: dose: 25.0 mg/kg/injection, schedule: Q01DX009 (ip), vehicle: saline with Tween-80.
Setting [5] is: dose: 50.0 mg/kg/injection, schedule: Q01DX009 (ip), vehicle: saline with Tween-80.
[6] abbreviates: dose: 100.0 mg/kg/injection, schedule: Q01DX009 (ip), vehicle: saline with Tween-80.
The mark [7] stands for this setting: dose: 200.0 mg/kg/injection, schedule: Q01DX009 (ip), vehicle: saline with Tween-80.
Where [8] appears, read: dose: 50.0 mg/kg/injection, schedule: Q01DX005 (ip), vehicle: saline with Tween-80.
The mark [9] stands for this setting: dose: 100.0 mg/kg/injection, schedule: Q01DX005 (ip), vehicle: saline with Tween-80.
[10] abbreviates: dose: 200.0 mg/kg/injection, schedule: Q01DX005 (ip), vehicle: saline with Tween-80.
Setting [11] is: dose: 100.0 mg/kg/injection, schedule: Q04DX003 (ip), vehicle: saline with Tween-80.

Consider `CC1=C(/C=C/C(C)=C/C=C/C(C)=C/C=C/C=C(C)/C=C/C=C(\C)C=O)C(C)(C)CCC1`, for which the T/C is 101 % of control (dose: 60.0 mg/kg/injection, schedule: Q01DX005 (ip), vehicle: saline with Tween-80); 92 % of control (dose: 120.0 mg/kg/injection, schedule: Q01DX005 (ip), vehicle: saline with Tween-80); 94 % of control (dose: 240.0 mg/kg/injection, schedule: Q01DX005 (ip), vehicle: saline with Tween-80).
On to `O=c1[nH]c2cc([N+](=O)[O-])ccc2nc1/C=C(\O)c1ccco1`, for which the T/C is, setting by setting: (dose: 60.0 mg/kg/injection, schedule: Q01DX005 (ip), vehicle: Klucel + Tween-80) 100 % of control; (dose: 120.0 mg/kg/injection, schedule: Q01DX005 (ip), vehicle: Klucel + Tween-80) 94 % of control; (dose: 240.0 mg/kg/injection, schedule: Q01DX005 (ip), vehicle: Klucel + Tween-80) 94 % of control.
Turning to `Nc1ncnc(Nc2ccc(C(F)(F)F)cc2)n1`, the T/C runs as follows: (dose: 12.5 mg/kg/injection, schedule: Q01DX009 (ip), vehicle: Klucel (hydroxypropylcellulose) (HPC)) 118 % of control; (dose: 25.0 mg/kg/injection, schedule: Q01DX009 (ip), vehicle: Klucel (hydroxypropylcellulose) (HPC)) 107 % of control; (dose: 50.0 mg/kg/injection, schedule: Q01DX009 (ip), vehicle: Klucel (hydroxypropylcellulose) (HPC)) 93 % of control; (dose: 100.0 mg/kg/injection, schedule: Q01DX009 (ip), vehicle: Klucel (hydroxypropylcellulose) (HPC)) 87 % of control.
As to `CN1C(=O)c2ccc3c4ccc5c6c(ccc(c7ccc(c2c37)C1=O)c64)C(=O)OC5=O`, the T/C reads like this: under setting [1], 101 % of control; under setting [2], 101 % of control; under setting [3], 103 % of control.
In the case of `O=[N+]([O-])c1ccc(-c2nc(/C=N/N3CCCCC3)cs2)s1`, the T/C runs as follows: under setting [4], 104 % of control; under setting [5], 106 % of control; under setting [6], 109 % of control.
Consider `C[Si](C)(C)c1c[nH]c(=O)[nH]c1=O`, for which the T/C reads like this: under setting [5], 102 % of control; under setting [6], 98 % of control and 96 % of control; under setting [7], 102 % of control.
For `ClCCCN1CCN(CCCCl)CC1`, the T/C by setting is: (dose: 12.5 mg/kg/injection, schedule: Q01DX009 (ip), vehicle: distilled water + alcohol) 113 % of control; (dose: 25.0 mg/kg/injection, schedule: Q01DX009 (ip), vehicle: distilled water + alcohol) 121 % of control; (dose: 100.0 mg/kg/injection, schedule: Q01DX009 (ip), vehicle: distilled water + alcohol) 157 % of control and 190 % of control.
In the case of `O=C1CC2COc3ccc(O)cc3C2=NN1c1ccccc1` (centres undefined), the T/C under setting [8] was 94 % of control, the T/C under setting [9] was 98 % of control and the T/C under setting [10] is 94 % of control.
On to `C=CCNC(=O)/C(C)=C(/C)c1ccccc1`, for which the T/C by setting is: (dose: 100.0 mg/kg/injection, schedule: Q01DX001 (ip), vehicle: Klucel (hydroxypropylcellulose) (HPC)) 100 % of control; (dose: 200.0 mg/kg/injection, schedule: Q01DX001 (ip), vehicle: Klucel (hydroxypropylcellulose) (HPC)) 104 % of control; (dose: 400.0 mg/kg/injection, schedule: Q01DX001 (ip), vehicle: Klucel (hydroxypropylcellulose) (HPC)) 99 % of control.
Take `C/C(=N\NC(=S)N1CCC(C)CC1)c1cccc2cccnc12`: the T/C under setting [8] was 106 % of control and the T/C under setting [9] was 104 % of control.
For `CCS(=O)(=O)/C=C\S(=O)(=O)CC`, the T/C reads like this: (dose: 1.56 mg/kg/injection, schedule: Q04DX003 (ip), vehicle: Klucel (hydroxypropylcellulose) (HPC)) 100 % of control; (dose: 3.12 mg/kg/injection, schedule: Q04DX003 (ip), vehicle: Klucel (hydroxypropylcellulose) (HPC)) 98 % of control; (dose: 6.25 mg/kg/injection, schedule: Q04DX003 (ip), vehicle: Klucel (hydroxypropylcellulose) (HPC)) 100 % of control.
Turning to `S=C(N/N=C/c1ccccn1)N/N=C/c1ccccn1`, the T/C is 117 % of control (dose: 6.25 mg/kg/injection, schedule: Q01DX009 (ip), vehicle: saline); 103 % of control and 105 % of control (dose: 12.5 mg/kg/injection, schedule: Q01DX009 (ip), vehicle: saline); 97 % of control (dose: 25.0 mg/kg/injection, schedule: Q01DX009 (ip), vehicle: distilled water + Tween-80); 109 % of control and 120 % of control (dose: 25.0 mg/kg/injection, schedule: Q01DX009 (ip), vehicle: saline).
Consider `Cc1ccc(Cl)cc1NC(=O)N(C)CCO`, for which the T/C reads like this: (dose: 60.0 mg/kg/injection, schedule: Q01DX005 (ip), vehicle: Klucel (hydroxypropylcellulose) (HPC)) 103 % of control; (dose: 120.0 mg/kg/injection, schedule: Q01DX005 (ip), vehicle: Klucel (hydroxypropylcellulose) (HPC)) 103 % of control; (dose: 240.0 mg/kg/injection, schedule: Q01DX005 (ip), vehicle: Klucel (hydroxypropylcellulose) (HPC)) 94 % of control.
As to `COC(=O)c1c(OC)cc2cc3c(c(O)c2c1C)C(=O)C1(O)C(=O)C=C(OC)C(OC(=O)CC(C)N)=C1C3=O` (centres undefined), the T/C is 103 % of control (dose: 25.0 mg/kg/injection, schedule: Q01DX005 (ip), vehicle: water); 100 % of control (dose: 50.0 mg/kg/injection, schedule: Q01DX005 (ip), vehicle: water); 104 % of control (dose: 100.0 mg/kg/injection, schedule: Q01DX005 (ip), vehicle: water).
Turning to `O=C(/C=C/c1c2ccccc2cc2ccccc12)c1ccc(C(=O)/C=C/c2c3ccccc3cc3ccccc23)cc1`, the T/C (dose: 12.5 mg/kg/injection, schedule: Q01DX009 (ip), vehicle: saline with Tween-80) was 105 % of control and the T/C under setting [4] was 90 % of control.
Regarding `CC1CN(C(=O)/C=C/C(=O)OC2CCCCC2)C(C)CN1C(=O)/C=C/C(=O)OC1CCCCC1` (centres undefined), the T/C runs as follows: under setting [1], 98 % of control; under setting [2], 94 % of control; under setting [3], 97 % of control.
For `CCOC(=O)CNC(=O)C(CS)NC(=O)C(CSC(c1ccccc1)c1ccccc1)NC(=O)OCc1ccccc1` (centres undefined), the T/C by setting is: under setting [1], 97 % of control; under setting [2], 99 % of control; under setting [3], 103 % of control.
Consider `Cc1cc(C)nc(NCCCCCCNc2nc(C)cc(C)n2)n1`, for which the T/C was 101 % of control under setting [11]; 90 % of control (dose: 200.0 mg/kg/injection, schedule: Q04DX003 (ip), vehicle: saline with Tween-80); 92 % of control (dose: 400.0 mg/kg/injection, schedule: Q04DX003 (ip), vehicle: saline with Tween-80).
Consider `CNC(=O)OCn1cnc(Cl)c1Cl`, for which the T/C was 93 % of control (dose: 50.0 mg/kg/injection, schedule: Q01DX005 (ip), vehicle: saline); 101 % of control (dose: 100.0 mg/kg/injection, schedule: Q01DX005 (ip), vehicle: saline); 102 % of control (dose: 200.0 mg/kg/injection, schedule: Q01DX005 (ip), vehicle: saline).
Consider `COc1ccc(/C=N\N=C(/[O-])c2ccccc2O)cc1.COc1ccc(/C=N\N=C(/[O-])c2ccccc2O)cc1.[OH3+].[OH3+].[Zn+2]`, for which the T/C was 100 % of control (dose: 100.0 mg/kg/injection, schedule: Q04DX002 (ip), vehicle: saline with Tween-80); 98 % of control (dose: 200.0 mg/kg/injection, schedule: Q04DX002 (ip), vehicle: saline with Tween-80); 91 % of control (dose: 400.0 mg/kg/injection, schedule: Q04DX002 (ip), vehicle: saline with Tween-80).
With `CCC(C)OC(=S)SSC(=S)OC(C)CC` (centres undefined), the T/C runs as follows: (dose: 25.0 mg/kg/injection, schedule: Q01DX009 (ip), vehicle: suspension in saline) 105 % of control; (dose: 50.0 mg/kg/injection, schedule: Q01DX009 (ip), vehicle: suspension in saline) 96 % of control; (dose: 100.0 mg/kg/injection, schedule: Q01DX009 (ip), vehicle: suspension in saline) 98 % of control; (dose: 200.0 mg/kg/injection, schedule: Q01DX009 (ip), vehicle: suspension in saline) 109 % of control.
For the compound `CCCn1c(CC)nc([N+](=O)[O-])c1Sc1ncnc2nc[nH]c12`, the T/C is 107 % of control (dose: 12.5 mg/kg/injection, schedule: Q01DX005 (ip), vehicle: Klucel (hydroxypropylcellulose) (HPC)); 123 % of control (dose: 25.0 mg/kg/injection, schedule: Q01DX005 (ip), vehicle: Klucel (hydroxypropylcellulose) (HPC)); 111 % of control under setting [3].
Turning to `CC1(Cc2c(N)[nH]c(=S)[nH]c2=O)OCCO1`, the T/C is 105 % of control under setting [8], 110 % of control under setting [9] and 110 % of control under setting [10].
With `CCOC(=O)c1ccc(NC(=O)Nc2nc3c(Cl)cccc3s2)cc1`, the T/C by setting is: under setting [5], 104 % of control; under setting [6], 94 % of control; under setting [7], 87 % of control.
As to `CCOC(=O)c1cc2c(ccn2OC)[nH]1`, under setting [11], the T/C is 102 % of control.
